Consider 5 compounds from US20250221410A1, “SUBSTITUTED 2-C-AZINES AND SALTS THEREOF, AND USE THEREOF AS HERBICIDAL ACTIVE SUBSTANCES” (BAYER AKTIENGESELLSCHAFT, priority 2022, published 2025).

Holding throughout (type): in vivo
The subject of assay [1] is AMARE: Amaranthus retroflexus. Put plainly: Post-emergence herbicidal efficacy at 80 g/ha, AMARE. The following applies: visual rating about 3 weeks after treatment vs untreated controls. How it is done: (§1) Seeds of monocotyledonous and dicotyledonous weeds and crop plants were placed in sandy loam in plastic or organic planting pots, covered with soil and cultivated in a greenhouse under controlled growth conditions. 2 to 3 weeks after sowing, the test plants were treated at the one-leaf stage. The compounds of the invention, formulated in the form of wettable powders (WP) or as emulsion concentrates (EC), were then sprayed onto the green parts of the plants as aqueous suspension or emulsion with addition of 0.5% additive at a water application rate of 600 l/ha (converted). After the test plants had been kept in the greenhouse under optimum growth conditions for about 3 weeks, the activity of the preparations was rated visually in comparison to untreated controls. For example, 100% activity=the plants have died, 0% activity=like control plants. Tables B1 to B10 below show the effects of selected compounds of the general formula (I) according to Table 1 on various harmful plants and an application rate corresponding to 80 g/ha, which were obtained by the experimental procedure mentioned above.

In another assay the test system is VERPE: Veronica persica. Put plainly: Post-emergence herbicidal efficacy at 80 g/ha, VERPE. To be noted: visual rating about 3 weeks after treatment vs untreated controls. The protocol:
as §1

For assay [2], the system named is AMARE: Amaranthus retroflexus. Put plainly: Pre-emergence herbicide efficacy at 80 g/ha, AMARE. To be noted: scored visually after about 3 weeks. An excerpt: Seeds of monocotyledonous and dicotyledonous weed plants and crop plants were placed in plastic or organic planting pots and covered with soil. The compounds of the invention, formulated in the form of wettable powders (WP) or as emulsion concentrates (EC), were then applied to the surface of the covering soil as aqueous suspension or emulsion with addition of 0.5% additive at a water application rate equivalent to 600 l/ha. After the treatment, the pots were placed in a greenhouse and kept under good growth conditions for the test plants. After about 3 weeks, the efficacy of the preparations was scored visually in comparison with untreated controls as percentages. For example, 100% activity=the plants have died, 0% activity=like control plants. Tables D1 to D12 below show the effects of selected compounds of the general formula (I) according to Table 1 on various harmful plants and an application rate corresponding to 80 g/ha, which were obtained by the experimental procedure mentioned above.

The structures appear in SMILES notation.

Consider `O=S(=O)(CCCC(F)(F)F)Oc1c(F)cccc1Cc1ncc(Br)cn1` [Example 1-186], for which the “Post-emergence efficacy against AMARE” value in assay [1] was determined as 90%. In the assay with VERPE: Veronica persica, the “Post-emergence efficacy against VERPE” value was determined as 90%.
For `O=S(=O)(CCC(F)(F)F)Oc1c(F)cccc1Cc1ncc(Br)cn1` [Example 1-187], the “Post-emergence efficacy against AMARE” value in assay [1] is reported as 90%. The “Post-emergence efficacy against VERPE” value in the assay on VERPE: Veronica persica was 90%. Besides, the “Pre-emergence efficacy against AMARE in %” value in assay [2] came out at 100%.
Turning to `Cc1cccc(Cc2ncc(Cl)cn2)c1OS(=O)(=O)CCC(F)(F)F` [Example 1-189], the “Post-emergence efficacy against VERPE” value with VERPE: Veronica persica is listed as 90%. Besides, the “Pre-emergence efficacy against AMARE in %” value in assay [2] stood at 80%.
`O=S(=O)(CCCCl)Oc1c(F)cccc1Cc1ncc(Br)cn1` [Example 1-192]: the “Post-emergence efficacy against VERPE” value with VERPE: Veronica persica is recorded as 80%.
On to `O=S(=O)(CCCCl)Oc1c(F)cccc1Cc1ncc(Cl)cn1` [Example 1-193], for which the “Post-emergence efficacy against AMARE” value in assay [1] was 90%. Further, the “Post-emergence efficacy against VERPE” value in the assay on VERPE: Veronica persica came to 90%.
